Reference: patent publication US10407409B2, “6-(5-hydroxy-1H-pyrazol-1-yl)nicotinamide inhibitors of PHD” (Takeda Pharmaceutical Company Limited, priority 2013, dated 2019)

Columns and labels:
[1] = system: HIF1a protein in H9c2 rat cardiomyocytes; assay: Cell-based HIF-alpha stabilization assay (inhibition of PHD in cells); settings: 24 hrs compound incubation, HIF1a protein by ELISA; for EC50: Rattus norvegicus, H9c2, 24 h, read-out: Inhibition of PHD in cells (pEC50) (converted)
Procedure: Example B Inhibition of PHD in Cells
PHD Inhibition is Determined Using (Secondary Assay)
Cell-Based HIF-Alpha Stabilization Assay:
H9c2 rat cardiomyocytes (ATCC) were seeded in 96-well tissue culture microplates and cultured for 24 hours prior to addition of compounds (11 point range of serial dilutions) or dimethylsulfoxide vehicle. After 24 hrs of compound incubation, whole cell extracts were prepared by lysing cells in cell extraction buffer containing protease and phosphatase inhibitors (Meso-Scale Discovery). HIF1a protein content was assessed by ELISA (Meso-Scale Discovery) and expressed as a % relative to the maximum response obtained from the positive control, desferrioxamine (Sigma-Aldrich). Compound EC50s were obtained by curve-fitting using XLfit4 MicroSoft Excel curve-fitting software. Compound EC50pos were obtained using XLfit4 to calculate the compound concentration that results in 50% of the desferrioxamine maximum response.

[2] = biological target: PHD2 enzyme (residues 181-417) (Homo sapiens (Human), UniProt Q9GZT9); assay: Inhibition of PHD enzyme (LC/MS peptide hydroxylation assay); assay type: biochemical; settings: PHD2 (residues 181-417) 5 nM, 60 min pre-incubation, -log(IC50), IC50 molar
Sequence of PHD2 enzyme (residues 181-417) (Q9GZT9 181-417): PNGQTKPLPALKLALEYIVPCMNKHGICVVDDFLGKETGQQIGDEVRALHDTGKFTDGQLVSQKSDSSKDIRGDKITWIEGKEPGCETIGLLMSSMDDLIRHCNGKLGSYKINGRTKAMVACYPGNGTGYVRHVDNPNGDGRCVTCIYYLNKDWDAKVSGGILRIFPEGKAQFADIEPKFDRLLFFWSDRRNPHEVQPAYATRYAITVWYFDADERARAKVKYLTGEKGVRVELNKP
Method in brief: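 PHD2 (5 nM final) preincubated with inhibitor 60 min at RT in 50 mM HEPES, 50 mM KCl, 0.5 mM TCEP, 2 uM FeCl2, 0.1 mg/ml BSA, pH 7.3. Reaction started with biotin-peptide (1 uM), 2-oxoglutarate (2 uM), ascorbate (1 mM), quenched at 60 min; hydroxylated product by LC/MS, reported as pIC50.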

| Compound | EC50 [1] | IC50 ([2]; read-out: PHD Inhibition (pIC50) (converted)) | PHD Inhibition (pIC50) [2] | Inhibition of PHD in cells (pEC50) [1] |
| --- | --- | --- | --- | --- |
| COc1cc(-c2cnn(-c3ccc(C(=O)NCCCO)cn3)c2O)ccn1 [Example 26, 6-(5-hydroxy-4-(2-methoxypyridin-4-yl)-1H-pyrazol-1-yl)-N-(3-hydroxypropyl)nicotinamide] | 3630 nM | 97.7 nM | – | – |
| COc1cc(-c2cnn(-c3ccc(C(=O)NCC4CCN(C)CC4)cn3)c2O)ccn1 [Example 30, 6-(5-hydroxy-4-(2-methoxypyridin-4-yl)-1H-pyrazol-1-yl)-N-((1-methylpiperidin-4-yl)methyl)nicotinamide] | 2000 nM | – | 7.5 | – |
| COc1cc(-c2cnn(-c3ccc(C(=O)NCCC4CCCN4C)cn3)c2O)ccn1 (stereo not drawn) [Example 31, 6-(5-hydroxy-4-(2-methoxypyridin-4-yl)-1H-pyrazol-1-yl)-N-(2-(1-methylpyrrolidin-2-yl)ethyl)nicotinamide] | – | – | 7.5 | 6.00 |
| COc1cc(-c2cnn(-c3ccc(C(=O)NCCCN4CCOCC4)cn3)c2O)ccn1 [Example 32, 6-(5-hydroxy-4-(2-methoxypyridin-4-yl)-1H-pyrazol-1-yl)-N-(3-morpholinopropyl)nicotinamide] | 813 nM | – | 7.8 | – |
| COc1cc(-c2cnn(-c3ccc(C(=O)NC4CCN(C)CC4)cn3)c2O)ccn1 [Example 33, 6-(5-hydroxy-4-(2-methoxypyridin-4-yl)-1H-pyrazol-1-yl)-N-(1-methylpiperidin-4-yl)nicotinamide] | 1170 nM | – | 7.4 | – |
| CCNC(=O)c1ccc(-n2ncc(-c3ccnc(OC)c3)c2O)nc1 [Example 34, N-ethyl-6-(5-hydroxy-4-(2-methoxypyridin-4-yl)-1H-pyrazol-1-yl)nicotinamide] | 513 nM | – | 8 | – |
| COc1cc(-c2cnn(-c3ccc(C(=O)NCCCn4ccnc4)cn3)c2O)ccn1 [Example 35, N-(3-(1H-imidazol-1-yl)propyl)-6-(5-hydroxy-4-(2-methoxypyridin-4-yl)-1H-pyrazol-1-yl)nicotinamide] | – | – | 7.8 | 5.50 |
| COc1cc(-c2cnn(-c3ccc(C(=O)NCC4CCN(C)C4)cn3)c2O)ccn1 (stereo not drawn) [Example 36, 6-(5-hydroxy-4-(2-methoxypyridin-4-yl)-1H-pyrazol-1-yl)-N-((1-methylpyrrolidin-3-yl)methyl)nicotinamide] | 1480 nM | – | 7.4 | – |
| COc1cc(-c2cnn(-c3ccc(C(=O)NCCCN4CCCCC4)cn3)c2O)ccn1 [Example 38, 6-(5-hydroxy-4-(2-methoxypyridin-4-yl)-1H-pyrazol-1-yl)-N-(3-(piperidin-1-yl)propyl)nicotinamide] | – | – | 7.5 | 6.02 |
| COc1cc(-c2cnn(-c3ccc(C(=O)NCCCN4CCCC4)cn3)c2O)ccn1 [Example 39, 6-(5-hydroxy-4-(2-methoxypyridin-4-yl)-1H-pyrazol-1-yl)-N-(3-(pyrrolidin-1-yl)propyl)nicotinamide] | – | – | 7.3 | 5.58 |
| CNC(=O)c1ccc(-n2ncc(-c3ccnc(OC)c3)c2O)nc1 [Example 40, 6-(5-hydroxy-4-(2-methoxypyridin-4-yl)-1H-pyrazol-1-yl)-N-methylnicotinamide] | 977 nM | – | 7.9 | – |
| COc1cc(-c2cnn(-c3ccc(C(=O)NC4CCN(C5CC5)CC4)cn3)c2O)ccn1 [Example 41, N-(1-cyclopropylpiperidin-4-yl)-6-(5-hydroxy-4-(2-methoxypyridin-4-yl)-1H-pyrazol-1-yl)nicotinamide] | 550 nM | – | 8 | – |
| CNCCCNC(=O)c1ccc(-n2ncc(-c3ccnc(OC)c3)c2O)nc1 [Example 42, 6-(5-hydroxy-4-(2-methoxypyridin-4-yl)-1H-pyrazol-1-yl)-N-(3-(methylamino)propyl)nicotinamide] | 3390 nM | – | 7.5 | – |
| COc1cc(-c2cnn(-c3ccc(C(=O)NCCCn4cccn4)cn3)c2O)ccn1 [Example 43, N-(3-(1H-pyrazol-1-yl)propyl)-6-(5-hydroxy-4-(2-methoxypyridin-4-yl)-1H-pyrazol-1-yl)nicotinamide] | 347 nM | – | 8.2 | – |
| COC[C@H]1CCC[C@H]1NC(=O)c1ccc(-n2ncc(-c3ccnc(OC)c3)c2O)nc1 [Example 45, 6-(5-hydroxy-4-(2-methoxypyridin-4-yl)-1H-pyrazol-1-yl)-N-((1R,2S)-2-(methoxymethyl)cyclopentyl)nicotinamide] | 562 nM | – | 8 | – |
| COc1cc(-c2cnn(-c3ccc(C(=O)NCC4CN(C)CCO4)cn3)c2O)ccn1 (stereo not drawn) [Example 46, 6-(5-hydroxy-4-(2-methoxypyridin-4-yl)-1H-pyrazol-1-yl)-N-((4-methylmorpholin-2-yl)methyl)nicotinamide] | 1350 nM | – | 7.8 | – |
| COCC1(CNC(=O)c2ccc(-n3ncc(-c4ccnc(OC)c4)c3O)nc2)CCCC1 [Example 47, 6-(5-hydroxy-4-(2-methoxypyridin-4-yl)-1H-pyrazol-1-yl)-N-((1-(methoxymethyl)cyclopentyl)methyl)nicotinamide] | 355 nM | – | 8.4 | – |
| COc1cc(-c2cnn(-c3ccc(C(=O)NCC4CCCCO4)cn3)c2O)ccn1 (stereo not drawn) [Example 48, 6-(5-hydroxy-4-(2-methoxypyridin-4-yl)-1H-pyrazol-1-yl)-N-((tetrahydro-2H-pyran-2-yl)methyl)nicotinamide] | 646 nM | – | 8 | – |
| COCC(C)CNC(=O)c1ccc(-n2ncc(-c3ccnc(OC)c3)c2O)nc1 (stereo not drawn) [Example 49, 6-(5-hydroxy-4-(2-methoxypyridin-4-yl)-1H-pyrazol-1-yl)-N-(3-methoxy-2-methylpropyl)nicotinamide] | 871 nM | – | 7.9 | – |
| COc1cc(-c2cnn(-c3ccc(C(=O)NCCC(C)OC)cn3)c2O)ccn1 (stereo not drawn) [Example 50, 6-(5-hydroxy-4-(2-methoxypyridin-4-yl)-1H-pyrazol-1-yl)-N-(3-methoxybutyl)nicotinamide] | 871 nM | – | 8.1 | – |
| COc1cc(-c2cnn(-c3ccc(C(=O)NC(C)(C)CN(C)C)cn3)c2O)ccn1 [Example 51, N-(1-(dimethylamino)-2-methylpropan-2-yl)-6-(5-hydroxy-4-(2-methoxypyridin-4-yl)-1H-pyrazol-1-yl)nicotinamide] | 1820 nM | – | 7.3 | – |
| COc1cc(-c2cnn(-c3ccc(C(=O)N[C@H]4CC[C@@H](C)CC4)cn3)c2O)ccn1 [Example 52, 6-(5-hydroxy-4-(2-methoxypyridin-4-yl)-1H-pyrazol-1-yl)-N-((1s,4s)-4-methylcyclohexyl)nicotinamide] | 933 nM | – | 8.3 | – |
| N#Cc1ccc(-c2cnn(-c3ccc(C(=O)NCCC4CC4)cn3)c2O)cc1 [Example 53, 6-(4-(4-cyanophenyl)-5-hydroxy-1H-pyrazol-1-yl)-N-(2-cyclopropylethyl)nicotinamide] | 525 nM | – | 7.03 | – |
| CC1(C)CC1NC(=O)c1ccc(-n2ncc(-c3ccc(C#N)cc3)c2O)nc1 (stereo not drawn) [Example 54, 6-(4-(4-cyanophenyl)-5-hydroxy-1H-pyrazol-1-yl)-N-(2,2-dimethylcyclopropyl)nicotinamide] | 331 nM | – | 7.22 | – |
| COC(C)(C)CNC(=O)c1ccc(-n2ncc(-c3ccc(C#N)cc3)c2O)nc1 [Example 55, 6-(4-(4-cyanophenyl)-5-hydroxy-1H-pyrazol-1-yl)-N-(2-methoxy-2-methylpropyl)nicotinamide] | 1860 nM | – | 7.2 | – |
| COCC1(CNC(=O)c2ccc(-n3ncc(-c4ccc(C#N)cc4)c3O)nc2)CC1 [Example 56, 6-(4-(4-cyanophenyl)-5-hydroxy-1H-pyrazol-1-yl)-N-((1-(methoxymethyl)cyclopropyl)methyl)nicotinamide] | 1450 nM | – | 7.12 | – |
| CN1CCC(CNC(=O)c2ccc(-n3ncc(-c4ccc(C#N)cc4)c3O)nc2)CC1 [Example 57, 6-(4-(4-cyanophenyl)-5-hydroxy-1H-pyrazol-1-yl)-N-((1-methylpiperidin-4-yl)methyl)nicotinamide] | – | – | 6.98 | 5.70 |
